Data from patent publication US6750228B1, “Aromatic sulfone hydroxamic acid metalloprotease inhibitor” (priority 1997, dated 2004).
Counter-ions that a name gives are not always drawn. Like-named read-outs stand apart in the source and are kept apart here.

Experiments:
Assay in all cases: biochemical
MMP-2 = biological target: T1, MMP-2 (Homo sapiens, UniProt P08253)
T1 construct: made in house; provided by Dr. Gregory Goldberg, Washington University
T1 sequence (P08253 110-660): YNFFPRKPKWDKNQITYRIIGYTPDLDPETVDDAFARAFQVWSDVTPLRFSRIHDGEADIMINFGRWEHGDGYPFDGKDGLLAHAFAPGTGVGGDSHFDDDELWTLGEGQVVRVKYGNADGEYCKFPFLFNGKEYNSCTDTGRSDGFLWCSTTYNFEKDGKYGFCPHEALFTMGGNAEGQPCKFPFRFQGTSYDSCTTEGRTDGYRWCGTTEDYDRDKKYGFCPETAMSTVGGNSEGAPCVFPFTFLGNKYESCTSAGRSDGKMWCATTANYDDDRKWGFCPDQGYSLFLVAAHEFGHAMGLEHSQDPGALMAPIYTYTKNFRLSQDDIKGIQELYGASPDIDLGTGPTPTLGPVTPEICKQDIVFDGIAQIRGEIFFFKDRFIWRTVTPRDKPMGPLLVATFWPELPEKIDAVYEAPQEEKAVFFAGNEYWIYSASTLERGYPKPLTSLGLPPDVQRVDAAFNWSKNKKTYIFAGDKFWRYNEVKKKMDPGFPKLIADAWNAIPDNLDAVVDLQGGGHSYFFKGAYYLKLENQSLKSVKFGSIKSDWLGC
Procedure, shortened: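 APMA- or trypsin-activated human MMPs (MMP-1 from transfected HT-1080 cells, MMP-2 from transfected cells) preincubated with inhibitor in 1% DMSO at room temperature, then 4 μM MCA-Pro-Leu-Gly-Leu-Dpa-Ala-Arg-NH2 added in Tris/NaCl/CaCl2 buffer pH 7.5. IC50 from fluorescence reduction versus inhibitor concentration.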

MMP-13 = biological target: T2, MMP-13 (Homo sapiens, UniProt P45452); conditions: read-out: MMP-13 IC50
T2 construct: made in house; host or cells: baculovirus / insect cells
Procedure, shortened: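 Assay buffer 100 mM Tris-HCl, 100 mM NaCl, 10 mM CaCl2, pH 7.5. Activated MMP + inhibitor, 5 min RT; then methoxycoumarin peptide substrate, 4 μM final. Readout fluorescence; IC50 calculated.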

MMP-1 = biological target: T3, MMP-1 (Homo sapiens, UniProt P03956); conditions: read-out: MMP-1 IC50
T3 construct: made in house; host or cells: transfected HT-1080 cells (provided by Dr. Harold Welgus, Washington University)
T3 sequence (P03956 100-469): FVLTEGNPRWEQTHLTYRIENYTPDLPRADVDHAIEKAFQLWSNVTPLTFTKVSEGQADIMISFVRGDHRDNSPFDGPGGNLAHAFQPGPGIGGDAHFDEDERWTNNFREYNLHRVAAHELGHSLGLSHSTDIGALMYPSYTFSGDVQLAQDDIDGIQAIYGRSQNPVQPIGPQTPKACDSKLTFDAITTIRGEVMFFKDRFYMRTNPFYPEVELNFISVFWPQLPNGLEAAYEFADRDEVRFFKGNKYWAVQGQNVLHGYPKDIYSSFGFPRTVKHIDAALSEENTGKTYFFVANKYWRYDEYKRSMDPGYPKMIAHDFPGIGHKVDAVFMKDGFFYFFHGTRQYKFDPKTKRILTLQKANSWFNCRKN
Procedure, shortened: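 APMA- or trypsin-activated enzymes were preincubated with inhibitor for 5 min at room temperature, then the fluorogenic substrate MCA-Pro-Leu-Gly-Leu-Dpa-Ala-Arg-NH2 was added to a final 4 μM.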

[1] = recombinant human MMP-2, MCA peptide substrate 4 μM, pH 7.5, room temperature, read-out: MMP-2 IC50
[2] = recombinant human MMP-13, MCA peptide substrate 4 μM, pH 7.5, room temperature
[3] = recombinant human MMP-1, MCA peptide substrate 4 μM, pH 7.5, room temperature

Row | Compound | IC50 (MMP-2; [1]) | IC50 (MMP-13; [2]) | IC50 (MMP-1; [3]) | IC50 (MMP-1) | IC50 (MMP-2; read-out: MMP-2 IC50) | IC50 (MMP-13) | IC50 (MMP-2; MMP-2 IC50 (nM))
1 | Cn1ccnc1CN1CCC(C(=O)NO)(S(=O)(=O)c2ccc(Oc3ccc(OC(F)(F)F)cc3)cc2)CC1 [Example 386] | 0.2 nM | 0.4 nM | 2.1 µM |  |  |  | 
2 | O=C(NO)C1(S(=O)(=O)c2ccc(N3CCCC(COCc4ccc(Cl)c(Cl)c4)C3)cc2)CCOCC1 (stereo not drawn) [Example 508] | 210 nM | 19.3 nM | > 10 µM |  |  |  | 
3 | Tetrahydro-N-hydroxy-4-[[4-(pentaflourooxy)phenyl]sulfonyl]-2H-thiopyran-4-carboxamide [Example 224] | < 0.1 nM | < 0.1 nM | 4.5 µM |  |  |  | 
4 | O=C(NO)C1(S(=O)(=O)c2ccc(Oc3ccc(C(F)(F)F)cc3)cc2)CCN(S(=O)(=O)c2ccc(C(F)(F)F)cc2)CC1 [Example 143] | 14.5 nM | 22 nM | > 10 µM |  |  |  | 
5 | O=C(Nc1ccccc1Cl)OC1CCN(c2ccc(S(=O)(=O)C3(C(=O)NO)CCOCC3)cc2)CC1 [Example 521] | 50 nM | 3.5 nM | > 10 µM |  |  |  | 
6 | O=C(NO)C1(S(=O)(=O)c2ccc(N3CCC4CCCCC4C3)cc2)CCOCC1 (stereo not drawn) [Example 692] | 22.7 nM | 10 nM | > 10 µM |  |  |  | 
7 | CO[C@@H]1CCN(c2ccc(S(=O)(=O)C3(C(=O)NO)CCOCC3)cc2)C1 [Example 533] | 150 nM | 60 nM | > 10 µM |  |  |  | 
8 | O=C(NO)C1(S(=O)(=O)c2ccc(N3CCC(OCc4ccccc4)CC3)cc2)CCOCC1 [Example 165] | 48.5 nM | 3 nM | > 10 µM |  |  |  | 
9 | O=C(CCCCNCc1cccnc1)N1CCC(C(=O)NO)(S(=O)(=O)c2ccc(Oc3ccc(C(F)(F)F)cc3)cc2)CC1 [Example 333] | 0.2 nM | 0.8 nM | > 10 µM |  |  |  | 
10 | Cc1cccc(OC2CCN(c3ccc(S(=O)(=O)C4(C(=O)NO)CCOCC4)cc3)CC2)c1 [Example 485] | 4.2 nM | 8 nM | > 10 µM |  |  |  | 
11 | O=C(NO)C1(S(=O)(=O)c2ccc(N3CCC(OCc4ccc(OC(F)(F)F)cc4)CC3)cc2)CCN(C2CC2)CC1 [Example 418] | 1400 nM | 7 nM | > 10 µM |  |  |  | 
12 | CC(=O)c1ccc(OC2CCN(c3ccc(S(=O)(=O)C4(C(=O)NO)CCOCC4)cc3)CC2)cc1 [Example 470] | 2000 nM | 140 nM | > 10 µM |  |  |  | 
13 | O=C(NO)C1(S(=O)(=O)c2ccc(OC3CCC(OCc4cccc(Cl)c4)C3)cc2)CCOCC1 (stereo not drawn) [Example 669] | 22.7 nM | 4.3 nM | > 10 µM |  |  |  | 
14 | O=C(NO)C1(S(=O)(=O)c2ccc(Oc3ccc(OC(F)(F)F)cc3)cc2)CCN(CCn2ccnc2)CC1 [Example 261, N-Hydroxy-1-[2-(1H-imidazol-1-yl)ethyl]-4-[[4-[4-(trifluoromethoxy)phenoxy]phenyl]sulfonyl]-4-piperidinecarboxamide, Dihydrochloride] | < 0.1 nM | < 0.1 nM | 3.7 µM |  |  |  | 
15 | CCCN(CC(=O)N1CCC(C(=O)NO)(S(=O)(=O)c2ccc(N3CCC(C(=O)N4CC(C)CC(C)C4)CC3)cc2)CC1)CC1CC1 (stereo not drawn) [Example 292] | > 10000 nM | 100 nM | > 10 µM |  |  |  | 
16 | O=C(NO)C1(S(=O)(=O)c2ccc(N3CCCC3)cc2)CCOCC1 [Example 81] | 158 nM | 60 nM | > 10 µM |  |  |  | 
17 | O=C(c1ccc2ccccc2c1)C1CCN(c2ccc(S(=O)(=O)C3(C(=O)NO)CCOCC3)cc2)CC1 [Example 844] | 4700 nM | 5 nM |  | > 10 µM |  |  | 
18 | O=C(NO)C1(S(=O)(=O)c2ccc(N3CCC(OCc4ccc(Cl)c(Cl)c4)CC3)cc2)CCOCC1 [Example 176] | 250 nM | 4 nM | > 10 µM |  |  |  | 

Row | Compound | IC50 (MMP-2; [1]) | IC50 (MMP-13; [2]) | IC50 (MMP-1; [3]) | IC50 (MMP-1) | IC50 (MMP-2; read-out: MMP-2 IC50) | IC50 (MMP-13) | IC50 (MMP-2; MMP-2 IC50 (nM))
19 | O=C(c1cccc(OC(F)(F)F)c1)C1CCN(c2ccc(S(=O)(=O)C3(C(=O)NO)CCOCC3)cc2)CC1 [Example 725] | 210 nM | 25.1 nM | > 10 µM |  |  |  | 
20 | O=C(C1CCN(c2ccc(S(=O)(=O)C3(C(=O)NO)CCOCC3)cc2)CC1)N1CCC(CO)CC1 [Example 44] |  |  |  | > 10 µM | 1050 nM | 19 nM | 
21 | O=C(NO)C1(S(=O)(=O)c2ccc(N3CCC(c4ccccc4O)CC3)cc2)CCOCC1 [Example 825] |  | 11.3 nM |  | > 10 µM |  |  | 70 nM
22 | N#Cc1ccccc1COC1CCN(c2ccc(S(=O)(=O)C3(C(=O)NO)CCOCC3)cc2)CC1 [Example 559] | 80 nM | 7.2 nM | > 10 µM |  |  |  | 
23 | O=C(NO)C1(S(=O)(=O)c2ccc(N3CCC(OCc4ccc(COCC(F)(F)C(F)(F)C(F)(F)C(F)F)cc4)CC3)cc2)CCOCC1 [Example 611] | 1800 nM | 139 nM | > 10 µM |  |  |  | 
24 | C=Cc1cccc(C(=O)C2CCN(c3ccc(S(=O)(=O)C4(C(=O)NO)CCOCC4)cc3)CC2)c1 [Example 786] | 700 nM | 3.7 nM | > 10 µM |  |  |  | 
25 | O=C(C1CCN(c2ccc(S(=O)(=O)C3(C(=O)NO)CCOCC3)cc2)CC1)N1CCN(CCN2CCOCC2)CC1 [Example 42] |  |  |  | > 10 µM | > 10000 nM | 82.5 nM | 
26 | CC1(C)CC2CC(C)(CN2c2ccc(S(=O)(=O)C3(C(=O)NO)CCOCC3)cc2)C1 (stereo not drawn) [Example 214] | 3500 nM | 4900 nM | > 10 µM |  |  |  | 
27 | O=C(NO)C1(S(=O)(=O)c2ccc(N3CCC(OCc4ccc(F)c(C(F)(F)F)c4)CC3)cc2)CCN(C2CC2)CC1 [Example 408] | 800 nM | 25.1 nM | > 10 µM |  |  |  | 
28 | COCCN1CCC(C(=O)NO)(S(=O)(=O)c2ccc(N3CCC(C(=O)NCc4ccccc4)CC3)cc2)CC1 [Example 247, N-Hydroxy-1-(2-methoxyethyl)-4-[[4-[4-[[(phenylmethyl)amino]carbonyl]-1-piperidinyl]phenyl]-sulfonyl]-4-piperidinecarboxamide, Monohydrochloride] | 1600 nM | 34.5 nM | > 10 µM |  |  |  | 
29 | CCOC(=O)C1CCN(CC(=O)N2CCC(C(=O)NO)(S(=O)(=O)c3ccc(N4CCC(C(=O)N5CC(C)CC(C)C5)CC4)cc3)CC2)CC1 (stereo not drawn) [Example 313] | > 10000 nM | 77 nM | > 10 µM |  |  |  | 
30 | O=C(c1cc(F)cc(F)c1)C1CCN(c2ccc(S(=O)(=O)C3(C(=O)NO)CCOCC3)cc2)CC1 [Example 724] | 300 nM | 28.6 nM | > 10 µM |  |  |  | 
31 | CC(C)CN(C)C(=O)C1CCN(c2ccc(S(=O)(=O)C3(C(=O)NO)CCOCC3)cc2)CC1 [Example 58] | 4000 nM | 22 nM | > 10 µM |  |  |  | 
32 | O=C(NO)C1(S(=O)(=O)c2ccc(N3CC=C(c4ccccc4C(F)(F)F)CC3)cc2)CCOCC1 [Example 208] | 1000 nM | 110 nM | > 10 µM |  |  |  | 
33 | COCCN1CCC(C(=O)NO)(S(=O)(=O)c2ccc(N3CCC(C(=O)Nc4ccc(OC(F)(F)F)cc4)CC3)cc2)CC1 [Example 248, N-Hydroxy-1-(2-methoxyethyl)-4-[[4-[4-[[[4-(trifluoromethoxy)phenyl]amino]carbonyl]-1-piperidinyl]-phenyl]sulfonyl]-4-piperidinecarboxamide, Monohydrochloride] | 270 nM | 2.29 nM | > 10 µM |  |  |  | 
34 | CCNCC(=O)N1CCC(C(=O)NO)(S(=O)(=O)c2ccc(N3CCC(C(=O)N4CC(C)CC(C)C4)CC3)cc2)CC1 (stereo not drawn) [Example 277] | > 10000 nM | 70 nM | > 10 µM |  |  |  | 
35 | O=C(CNCCO)N1CCC(C(=O)NO)(S(=O)(=O)c2ccc(Oc3ccc(C(F)(F)F)cc3)cc2)CC1 [Example 321] | 0.3 nM | 0.5 nM | > 10 µM |  |  |  | 
36 | O=C(NO)C1(S(=O)(=O)c2ccc(N3CCC(Oc4cc(F)c([N+](=O)[O-])c(F)c4)CC3)cc2)CCOCC1 [Example 549] | 2900 nM | 55.3 nM | > 10 µM |  |  |  | 
